2 molecules from patent US20160011176A1, “METHOD AND DEVICE FOR EXAMINING MYOCARDIAL TOXICITY AND EVALUATING CARDIOMYOCYTES” (NATIONAL UNIVERSITY CORPORATION TOKYO MEDICAL AND DENTAL …, priority 2012, published 2016) can be followed below.

The test system of data set [1] is cardiomyocyte network. As to the kind of experiment: Excitation conduction transmitting through a linearly arranged cardiomyocyte network (transmission time, its fluctuation, FPD, STVFPD). The class given is cell-based. From the text:
FIGS. 65a, b schematically show an example of a method of such measurement of excitation conduction transmitting through a cardiomyocyte network. […] Arranged on a bottom surface of each cell housing on a substrate surface are respective electrodes (about 8 μm in diameter) for measurements of cellular potential, and from each of the electrodes, respective lead lines are extended. A single cardiomyocyte is received in each of the cell housings.
Specifically, in order to measure the temporal variation in the excitation conduction transmitting through the cellular population, an ignition peak of depolarization excited by an initial excitation conduction of each cell or each local point is measured, and at the same time, an ignition peak of an initial depolarization based on excitation conduction in another local area of adjacent another cell or adjacent another cellular population is measured; then a variation of a transmission rate or a transmission elapsed time is measured with respect to the distance between the two measurement points; and then the level of fluctuation of the transmission is quantitatively measured. Generally, the initial peak based on the excitation conduction is deemed to be a sodium spike. Thus, in view of this, the measurements of the initial ignition peak based on the excitation conduction are equivalent to the measurements of the sodium spikes. For example, where a drug with a big risk of proarrhlythmia is used, an increase in the fluctuation is utilized for the measurements. Here, the following are required: (1) a network of a plurality of cardiomyocytes is formed; (2) there is a means for accurately measuring the transmission delay time by measuring respective cellular potential wave form at two or more spatially different points within the network, and simultaneously accurately measuring the time of depolarization ignition spikes excited by the initial excitation conduction of the wave form; (3) in the case where a forced pulsation is provided, three or more electrodes are used to measure time required for transmission of the pulsation between respective electrodes at other measurement electrodes using the electrodes at both ends as stimulation electrodes, enabling measurements of temporal fluctuation of transmission rate or transmission time between the electrodes. As for the fluctuation, the STV as shown in Equation 3 in FIG. 24(c), for example, can be used for quantification. Here, Delayn and Delayn+1 (FIG. 65) can substitute for Vn and Vn+1. For transmission, when velocity is used, respective velocities can substitute for Delayn and Delayn+1. […] Thus, the transmission time will be measured as an extremely shorter transmission time than a transmission delay measured normally between adjacent electrodes. […]

Data set [2] has as its system cardiomyocyte network. Kind of data set: Simultaneous measurement of extracellular potential (FP) and contractile force (optical imaging) in a cardiomyocyte network. The format is cell-based. From the text: FIG. 43 is a schematic diagram showing an example of a system configuration of the present invention to simultaneously measure the mechanical properties and electrical properties of cardiomyocytes. The present system includes (1) a cellular network chip that can be used for culturing a cell population, includes a plurality of micro-electrodes disposed on a substrate and can be used for acquiring cellular potential data of a small area of the population; (2) a chip mounter for mounting the chip and joining electrically with cell-stimulating and/or cellular potential measuring system; (3) an environmental control vessel which can be used to control the environment such as temperature, humidity, oxygen concentration and carbon dioxide concentration of the cell population being cultured; (4) a micro multi-electrode potential measurement system that can give stimulation to a specific cell of a cardiomyocyte population, and allows simultaneous continuous measurements of cellular potentials of various small areas in the cell population; (5) one or more position-coordinate probe microparticles configured to measure changes in shape of myocardial cells and allow easy identification of cardiomyocytes using a plastic, polymer, glass or metal microparticles such as polystyrene microparticles, glass microparticles or gold microparticles of sizes from at minimum about 0.1, 0.2 μm, 0.3 μm, 0.4 μm, 0.5 μm, 0.6 μm, 0.7 μm, or preferably about 0.8 μm, more preferably about 0.9 μm, or most preferably about 1 μm to at most about 500 μm, 400 μm, 300 μm, preferably about 200 μm, more preferably about 100 μm or most preferably about 50 μm, wherein the particles are disposed in the cell population by mixing them on the surface of the cardiomyocyte population in the cell network chip or in the cell population and culturing them; (6) an optical image capturing system for optically measuring the microparticles, wherein the system includes a light source, an optical microscope and an image-capturing camera to capture the images of the microparticles; and (7) a computer system for image analysis, cellular potential analysis, stimulus control and/or integrated data acquisition, wherein the system is capable of measurements of cellular potential and analysis of waveforms of the potential, measurements of cell displacements by image analysis and feedback stimulation based on the analysis results. In the measurements using the device system, as for the stimulus to cause depolarization of the myocardial cells, the stimulus can be provided by selecting mainly from three means, i.e., (A) measurements using conduction of autonomous pulsation of the cardiomyocyte population, (B) measurements of conduction by providing a forced electrical stimulation from outside to a specific cell in the cardiomyocyte population and (C) measurements of conduction by providing a feed-back stimulus at a specific timing to meet the relationship of the delay time and the value of the cellular potential based on the cell voltage measured data to the specific cells in the cardiomyocyte population.
FIG. 44 is an example of a data acquisition monitor screen showing an example of data obtained from an example of a system configuration of the present invention to simultaneously measure the mechanical properties and the electrical properties of cardiomyocytes. In a setting of this example, a large number of polystyrene microparticles are placed on the surface of the cardiomyocyte population, a probe-particle displacement-observation window for five of the polystyrene microparticles selected as probes is set, and the center of gravity of the window moves with the movement of the microparticles in the window, thereby displacement of the particular probe microparticles can be measured continuously as a change in vector time in the directions of the X-axis and Y-axis. […]

Turning to `CC(C)(C)c1ccc(C(O)CCCN2CCC(C(O)(c3ccccc3)c3ccccc3)CC2)cc1` (stereo not shown) [terfenadine], the “fluctuation of FPD (STVFPD)” value in the data set with cardiomyocyte network [1] (FIG. 66e) is reported as “barely recognizable”. In the data set on cardiomyocyte network [1] (FIG. 66d), the “FPD (as indicator of toxicity)” value was “is not seen”. Also, in the data set on cardiomyocyte network [1] (concentration over 1 μM), the “fluctuation of time required for transmission” value is “increases” and the “transmission rate between adjacent electrodes (relative to no drug)” value is given as “suddenly decreased”.
As to `COc1ccc(CCN(C)CCCC(C#N)(c2ccc(OC)c(OC)c2)C(C)C)cc1OC` (stereo not shown) [verapamil], the “angle fluctuation against a decrease in contractile force” value in the data set on cardiomyocyte network [2] (10 nM) was “barely increases”. Further, in the data set with cardiomyocyte network [2] (100 nM), the “angle fluctuation (contraction direction)” value is reported as “rapid fluctuation of contractile direction in the angular direction”, the “contractile forces (time variation)” value is “disappear rapidly” and the “electrical firing of excitatory conduction of cells” value is on record as “is maintained”. Moreover, in the data set with cardiomyocyte network [2] (1000 nM), the electrophysiological excitation entry is on record as “does not occur” and the mechanical contraction entry is reported as “does not occur”.
